Data taken from the supplement of paper PMC6045584.
± gives the standard deviation of the averaged measurements.

Key:
[1] = compound: T1, C=CC(=O)Nc1cc2c(Nc3ccc(F)c(Cl)c3)ncnc2cc1OCCCN1CCOCC1 [CANERTINIB]; assay: surviving fraction relative to DMSO-only wells; higher = less growth inhibition; details: exposure time: 5 days
In short: (§1)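 A line counted only if its three screens reached replicate Pearson r >0.7 and median Z' >0.3. Tumour cells in log phase were seeded at 250–500 per well in 384-well plates and, after 24 hours, kept in continuous contact with inhibitors at 0.5, 1, 5, 10, 50, 100, 500 and 1000 nM for five days. Surviving fraction was taken from CellTiter-Glo luminescence relative to the median of DMSO-only wells.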

[2] = compound: T2, CC1(C)CC(=O)c2c(C(F)(F)F)nn(-c3ccc(C(N)=O)c(N[C@H]4CC[C@H](OC(=O)CN)CC4)c3)c2C1 [SNX-5422]; assay: as above; details: exposure time: 5 days
In short: as §1

[3] = compound: T3, CCCCCCCCCCCCCCCC(=O)Nc1ccn([C@@H]2O[C@H](CO)[C@@H](O)[C@@H]2C#N)c(=O)n1 [SAPACITABINE]; assay: as above; details: exposure time: 5 days
In short: as §1

[4] = compound: T4, CC[C@@H]1C(=O)N(C)c2cnc(Nc3ccc(C(=O)NC4CCN(C)CC4)cc3OC)nc2N1C1CCCC1 [BI-2536]; assay: as above; details: exposure time: 5 days
In short: as §1

[5] = compound: T5, CN(C)C/C=C/C(=O)Nc1cc2c(Nc3ccc(F)c(Cl)c3)ncnc2cc1O[C@H]1CCOC1 [AFATINIB]; assay: as above; details: exposure time: 5 days
In short: as §1

[6] = compound: T6, CNC(=O)c1ccc(N2C(=S)N(c3ccc(C#N)c(C(F)(F)F)c3)C(=O)C2(C)C)cc1F [MDV3100]; assay: as above; details: exposure time: 5 days
In short: as §1

[7] = compound: Cn1cc(C2=Nc3cc(NC(=O)C(N)C4CCCCC4)cc4c3C2=CNNC4=O)cn1; assay: as above; details: exposure time: 5 days
In short: as §1

[8] = compound: T7, Nc1nc2[nH]cnc2c(=S)[nH]1 [TIOGUANINE]; assay: as above; details: exposure time: 5 days
In short: as §1

[9] = compound: T1, CANERTINIB; assay: area under dose-response curve of surviving fraction (unscaled, Aref=0) (surviving fraction x log10(nM)); higher = more resistant; details: exposure time: 5 days; dose range 0.5-1000 nM
In short: (§2)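 Tumour cell lines in 384-well plates were exposed for five days to eight inhibitor concentrations from 0.5 to 1000 nM. Viability was read by CellTiter-Glo luminescence, normalised to DMSO-only wells, in three screens per line. Dose-response survival curves were fitted to surviving fractions by 3-parameter logistic regression in the drc R package. Area under the curve is the unscaled activity area (Aref = 0) over log10 dose.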

[10] = compound: T2, SNX-5422; assay: as above; details: exposure time: 5 days; dose range 0.5-1000 nM
In short: as §2

[11] = compound: T3, SAPACITABINE; assay: as above; details: exposure time: 5 days; dose range 0.5-1000 nM
In short: as §2

[12] = compound: T4, BI-2536; assay: as above; details: exposure time: 5 days; dose range 0.5-1000 nM
In short: as §2

[13] = compound: T5, AFATINIB; assay: as above; details: exposure time: 5 days; dose range 0.5-1000 nM
In short: as §2

[14] = compound: T6, MDV3100; assay: as above; details: exposure time: 5 days; dose range 0.5-1000 nM
In short: as §2

[15] = compound: Cn1cc(C2=Nc3cc(NC(=O)C(N)C4CCCCC4)cc4c3C2=CNNC4=O)cn1; assay: as above; details: exposure time: 5 days; dose range 0.5-1000 nM
In short: as §2

[16] = compound: T7, TIOGUANINE; assay: as above; details: exposure time: 5 days; dose range 0.5-1000 nM
In short: as §2

Test System: HCC1395 BREAST
- surviving fraction ([1]; 0.5 nM): 0.955 ± 0.095
- surviving fraction ([1]; 1 nM): 0.901 ± 0.022
- surviving fraction ([1]; 5 nM): 1 ± 0.15
- surviving fraction ([1]; 10 nM): 0.905 ± 0.059
- surviving fraction ([1]; 50 nM): 1.13 ± 0.068
- surviving fraction ([1]; 100 nM): 1.05 ± 0.021
- surviving fraction ([1]; 500 nM): 1.06 ± 0.11
- surviving fraction ([1]; 1000 nM): 1.01 ± 0.066
- surviving fraction ([2]; 0.5 nM): 0.865 ± 0.17
- surviving fraction ([2]; 1 nM): 0.862 ± 0.071
- surviving fraction ([2]; 5 nM): 0.943 ± 0.15
- surviving fraction ([2]; 10 nM): 1.16 ± 0.23
- surviving fraction ([2]; 50 nM): 0.975 ± 0.15
- surviving fraction ([2]; 100 nM): 1.15 ± 0.066
- surviving fraction ([2]; 500 nM): 0.818 ± 0.1
- surviving fraction ([2]; 1000 nM): 0.893 ± 0.05
- surviving fraction ([3]; 0.5 nM): 0.861 ± 0.028
- surviving fraction ([3]; 1 nM): 0.828 ± 0.045
- surviving fraction ([3]; 5 nM): 0.949 ± 0.035
- surviving fraction ([3]; 10 nM): 0.877 ± 0.04
- surviving fraction ([3]; 50 nM): 0.935 ± 0.14
- surviving fraction ([3]; 100 nM): 0.889 ± 0.028
- surviving fraction ([3]; 500 nM): 0.808 ± 0.16
- surviving fraction ([3]; 1000 nM): 0.715 ± 0.15
- surviving fraction ([4]; 0.5 nM): 1.04 ± 0.12
- surviving fraction ([4]; 1 nM): 0.9 ± 0.043
- surviving fraction ([4]; 5 nM): 0.709 ± 0.18
- surviving fraction ([4]; 10 nM): 0.623 ± 0.15
- surviving fraction ([4]; 50 nM): 0.729 ± 0.071
- surviving fraction ([4]; 100 nM): 0.661 ± 0.05
- surviving fraction ([4]; 500 nM): 1.11 ± 0.19
- surviving fraction ([4]; 1000 nM): 0.78 ± 0.029
- surviving fraction ([5]; 0.5 nM): 1.05 ± 0.14
- surviving fraction ([5]; 1 nM): 1.14 ± 0.1
- surviving fraction ([5]; 5 nM): 1.03 ± 0.043
- surviving fraction ([5]; 10 nM): 1.13 ± 0.046
- surviving fraction ([5]; 50 nM): 1.01 ± 0.15
- surviving fraction ([5]; 100 nM): 1.12 ± 0.026
- surviving fraction ([5]; 500 nM): 1.05 ± 0.23
- surviving fraction ([5]; 1000 nM): 0.92 ± 0.12
- surviving fraction ([6]; 0.5 nM): 1.18 ± 0.027
- surviving fraction ([6]; 1 nM): 1.14 ± 0.089
- surviving fraction ([6]; 5 nM): 1.24 ± 0.075
- surviving fraction ([6]; 10 nM): 1.08 ± 0.19
- surviving fraction ([6]; 50 nM): 1.18 ± 0.15
- surviving fraction ([6]; 100 nM): 1.1 ± 0.15
- surviving fraction ([6]; 500 nM): 1.18 ± 0.16
- surviving fraction ([6]; 1000 nM): 1.16 ± 0.024
- surviving fraction ([7]; 0.5 nM): 0.805 ± 0.1
- surviving fraction ([7]; 1 nM): 0.961 ± 0.16
- surviving fraction ([7]; 5 nM): 0.938 ± 0.13
- surviving fraction ([7]; 10 nM): 0.975 ± 0.11
- surviving fraction ([7]; 50 nM): 0.766 ± 0.071
- surviving fraction ([7]; 100 nM): 0.68 ± 0.17
- surviving fraction ([7]; 500 nM): 0.578 ± 0.088
- surviving fraction ([7]; 1000 nM): 0.521 ± 0.065
- surviving fraction ([8]; 0.5 nM): 0.999 ± 0.06
- surviving fraction ([8]; 1 nM): 1.12 ± 0.064
- surviving fraction ([8]; 5 nM): 0.968 ± 0.1
- surviving fraction ([8]; 10 nM): 1.11 ± 0.054
- surviving fraction ([8]; 50 nM): 1.05 ± 0.039
- surviving fraction ([8]; 100 nM): 1.16 ± 0.04
- surviving fraction ([8]; 500 nM): 1.11 ± 0.086
- surviving fraction ([8]; 1000 nM): 1.09 ± 0.081
- area under dose-response curve [9]: 3.33
- area under dose-response curve [10]: 3.15
- area under dose-response curve [11]: 2.91
- area under dose-response curve [12]: 2.69
- area under dose-response curve [13]: 3.5
- area under dose-response curve [14]: 3.87
- area under dose-response curve [15]: 2.62
- area under dose-response curve [16]: 3.56

Test System: G292 BONE
- surviving fraction ([1]; 0.5 nM): 0.914 ± 0.061
- surviving fraction ([1]; 1 nM): 0.949 ± 0.028
- surviving fraction ([1]; 5 nM): 0.966 ± 0.055
- surviving fraction ([1]; 10 nM): 0.957 ± 0.019
- surviving fraction ([1]; 50 nM): 0.955 ± 0.054
- surviving fraction ([1]; 100 nM): 0.997 ± 0.073
- surviving fraction ([1]; 500 nM): 0.876 ± 0.046
- surviving fraction ([1]; 1000 nM): 0.677 ± 0.051
- surviving fraction ([2]; 0.5 nM): 1.01 ± 0.014
- surviving fraction ([2]; 1 nM): 0.952 ± 0.055
- surviving fraction ([2]; 5 nM): 1.02 ± 0.033
- surviving fraction ([2]; 10 nM): 0.994 ± 0.034
- surviving fraction ([2]; 50 nM): 0.366 ± 0.017
- surviving fraction ([2]; 100 nM): 0.287 ± 0.028
- surviving fraction ([2]; 500 nM): 0.081 ± 0.0089
- surviving fraction ([2]; 1000 nM): 0.0853 ± 0.012
- surviving fraction ([3]; 0.5 nM): 0.947 ± 0.056
- surviving fraction ([3]; 1 nM): 0.955 ± 0.026
- surviving fraction ([3]; 5 nM): 0.927 ± 0.059
- surviving fraction ([3]; 10 nM): 0.899 ± 0.061
- surviving fraction ([3]; 50 nM): 0.618 ± 0.028
- surviving fraction ([3]; 100 nM): 0.482 ± 0.012
- surviving fraction ([3]; 500 nM): 0.326 ± 0.011
- surviving fraction ([3]; 1000 nM): 0.299 ± 0.0036
- surviving fraction ([4]; 0.5 nM): 0.9403 ± 0.0023
- surviving fraction ([4]; 1 nM): 0.659 ± 0.042
- surviving fraction ([4]; 5 nM): 0.254 ± 0.012
- surviving fraction ([4]; 10 nM): 0.23 ± 0.013
- surviving fraction ([4]; 50 nM): 0.161 ± 0.011
- surviving fraction ([4]; 100 nM): 0.128 ± 0.0057
- surviving fraction ([4]; 500 nM): 0.0832 ± 0.0094
- surviving fraction ([4]; 1000 nM): 0.0727 ± 0.0063
- surviving fraction ([5]; 0.5 nM): 1 ± 0.064
- surviving fraction ([5]; 1 nM): 0.998 ± 0.029
- surviving fraction ([5]; 5 nM): 1.07 ± 0.027
- surviving fraction ([5]; 10 nM): 0.995 ± 0.037
- surviving fraction ([5]; 50 nM): 1.03 ± 0.02
- surviving fraction ([5]; 100 nM): 0.982 ± 0.028
- surviving fraction ([5]; 500 nM): 0.717 ± 0.032
- surviving fraction ([5]; 1000 nM): 0.447 ± 0.027
- surviving fraction ([6]; 0.5 nM): 0.9907 ± 0.009
- surviving fraction ([6]; 1 nM): 1.03 ± 0.02
- surviving fraction ([6]; 5 nM): 1.03 ± 0.059
- surviving fraction ([6]; 10 nM): 1.02 ± 0.013
- surviving fraction ([6]; 50 nM): 0.956 ± 0.032
- surviving fraction ([6]; 100 nM): 0.985 ± 0.036
- surviving fraction ([6]; 500 nM): 0.961 ± 0.013
- surviving fraction ([6]; 1000 nM): 0.865 ± 0.024
- surviving fraction ([7]; 0.5 nM): 1.03 ± 0.019
- surviving fraction ([7]; 1 nM): 0.968 ± 0.051
- surviving fraction ([7]; 5 nM): 1.02 ± 0.077
- surviving fraction ([7]; 10 nM): 1.04 ± 0.029
- surviving fraction ([7]; 50 nM): 0.631 ± 0.018
- surviving fraction ([7]; 100 nM): 0.315 ± 0.0083
- surviving fraction ([7]; 500 nM): 0.11 ± 0.0059
- surviving fraction ([7]; 1000 nM): 0.0638 ± 0.0015
- surviving fraction ([8]; 0.5 nM): 0.964 ± 0.034
- surviving fraction ([8]; 1 nM): 0.998 ± 0.045
- surviving fraction ([8]; 5 nM): 1 ± 0.021
- surviving fraction ([8]; 10 nM): 0.984 ± 0.036
- surviving fraction ([8]; 50 nM): 1.01 ± 0.023
- surviving fraction ([8]; 100 nM): 1.02 ± 0.016
- surviving fraction ([8]; 500 nM): 0.948 ± 0.011
- surviving fraction ([8]; 1000 nM): 0.949 ± 0.035
- area under dose-response curve [9]: 3.18
- area under dose-response curve [10]: 2.01
- area under dose-response curve [11]: 2.32
- area under dose-response curve [12]: 0.883
- area under dose-response curve [13]: 3.06
- area under dose-response curve [14]: 3.25
- area under dose-response curve [15]: 2.19
- area under dose-response curve [16]: 3.25
